The values that follow come from ChEMBL document CHEMBL3244268, “Nucleosides. 102. Synthesis of some 3'-deoxy-3'-substituted arabinofuranosylpyrimidine nucleosides” (1977).

Values after ≈ are worked out from the molar mass of the structure shown.

The subject of one experiment is L5178Y. Nature of the experiment: Growth inhibition of mouse L5178Y cells. In kind it is functional. To be noted: read-out: ID50 (the source's name).
Turning to `Nc1ccn([C@@H]2O[C@H](CO)[C@@H](Br)[C@@H]2O)c(=O)n1`, the IC50 was 10 µg/mL (≈ 32.7 µM).
With `Nc1ccn([C@@H]2O[C@H](CO)[C@@H](I)[C@@H]2O)c(=O)n1`, the IC50 is 1 µg/mL (≈ 2.83 µM).
As to `[N-]=[N+]=N[C@H]1[C@H](O)[C@H](n2ccc(N)nc2=O)O[C@@H]1CO`, the IC50 came to 0.5 µg/mL (≈ 1.86 µM).

In the next experiment the test system is L5178Y. Put plainly: Growth inhibition of mouse L5178Y cells at 10 ug/ml. In kind it is functional. To be noted: read-out: GI.
Take `O=c1ccn([C@@H]2O[C@H](CO)[C@@H](Br)[C@@H]2O)c(=O)[nH]1`: the inhibition of growth at 10 µg/mL amounted to 6%.
Same read-out and setting: to `O=c1ccn([C@@H]2O[C@H](CO)[C@@H](N=C=S)[C@@H]2O)c(=O)[nH]1` belongs 5%; to `Nc1ccn([C@@H]2O[C@H](CO)[C@@H](N=C=S)[C@@H]2O)c(=O)n1`, 34%; to `O=c1ccn([C@@H]2O[C@H](CO)[C@@H](I)[C@@H]2O)c(=O)[nH]1`, 0%.
Same read-out and setting: to `[N-]=[N+]=N[C@H]1[C@H](O)[C@H](n2ccc(=O)[nH]c2=O)O[C@@H]1CO` belongs 0%.
